Results taken from US20260176289A1, “SMALL MOLECULE INHIBITORS OF KRAS PROTEINS” (Merck Sharp & Dohme LLC, priority 2022, published 2026).

Columns and labels:
KRAS-WT = KRAS-WT (Homo sapiens, UniProt P01116); assay: SOS-catalyzed nucleotide exchange assay (Procedure A, TR-FRET), KRAS-WT; assay type: biochemical; conditions: nucleotide exchange, read-out: KRAS WT GNE IC50
In short: (§1)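 TR-FRET 520/495 nm ratio read after SOS-driven exchange of Bodipy-GDP for unlabeled GTP (3 mM) on biotinylated RAS bound to Tb-streptavidin. There was a 60 min compound preincubation, RT. Final RAS/SOS and reaction times: G12C 3 nM/40 nM; WT 1 nM/40 nM; NRAS 1.25 nM/40 nM, each 60 min. G12V was 1.25 nM/160 nM, 90 min.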

[1] = target: KRAS-G12C (C51S/C80L/C118S) (Homo sapiens, UniProt P01116, C118S/C51S/C80L/G12C); assay: SOS-catalyzed nucleotide exchange assay (Procedure A, TR-FRET), KRAS-G12C; assay type: biochemical; conditions: nucleotide exchange, Procedure A; read-out: KRAS G12C GNE IC50
In short: as §1

KRAS-G12D = KRAS-G12D (Homo sapiens, UniProt P01116, G12D); assay: SOS-catalyzed nucleotide exchange assay (Procedure A, TR-FRET), KRAS-G12D; assay type: biochemical; conditions: nucleotide exchange, read-out: KRAS G12D GNE IC50
In short: (§2)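 Signal ratio (520/495 nm, excitation 340 nm) reports Bodipy-GDP retention on biotinylated RAS after SOS-catalyzed exchange with 3 mM GTP. SOS was 40 nM, except 160 nM for G12V. Room-temperature exchange lasted 60 min (90 min for G12V), following a 60 min compound preincubation.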

KRAS-G12V = KRAS-G12V (Homo sapiens, UniProt P01116, G12V); assay: SOS-catalyzed nucleotide exchange assay (Procedure A, TR-FRET), KRAS-G12V; assay type: biochemical; conditions: nucleotide exchange, read-out: KRAS G12V GNE IC50
In short: as §1

KRAS-G13D = KRAS-G13D (Homo sapiens, UniProt P01116, G13D); assay: SOS-catalyzed nucleotide exchange assay (Procedure A, TR-FRET), KRAS-G13D; assay type: biochemical; conditions: nucleotide exchange, Procedure A; read-out: KRAS G13D GNE IC50
HRAS = HRAS (Homo sapiens, UniProt P01112); assay: SOS-catalyzed nucleotide exchange assay (Procedure A, TR-FRET), HRAS; assay type: biochemical; conditions: read-out: HRAS GNE IC50
In short: as §2

NRAS = NRAS (Homo sapiens, UniProt P01111); assay: SOS-catalyzed nucleotide exchange assay (Procedure A, TR-FRET), NRAS; assay type: biochemical; conditions: read-out: NRAS GNE IC50
Text: Procedure for SOS-Catalyzed Nucleotide Exchange Assay for KRAS-WT, G12C/D/V, G13D, HRAS, and NRAS (Procedure A)
Recombinant KRAS-G12C protein used in this assay has an additional triple mutation (C51S/C80L/C118S). Whereas KRAS-WT, G12D/V, G13D, HRAS and NRAS are in context of their WT protein sequence background. Specifically, the SOS-catalyzed nucleotide exchange assay utilizes a preformed TR-FRET complex containing a specific biotinylated RAS protein (KRAS-WT, G12C/V/D, G13D, HRAS, NRAS; described above) with Bodipy-GDP, and Terbium-streptavidin. Compounds are preincubated with this complex for 60 minutes. Subsequently, recombinant human SOS protein and unlabeled GTP are added to initiate the exchange reaction. Small molecule inhibitors stabilize the Bodipy-GDP complex whereas the untreated protein rapidly exchanges Bodipy-GDP for unlabeled GTP resulting in reduced TR-FRET signal.
To assemble the preformed TR-FRET complexes, each biotinylated RAS protein is diluted to 2 μM in an EDTA Buffer (20 mM HEPES pH 7.5, 50 mM sodium chloride, 10 mM EDTA, and 0.01% Tween) and incubated at room temperature for one hour. This mixture is then further diluted to 90 nM in an Assay Buffer (20 mM HEPES pH 7.5, 150 mM sodium chloride, 10 mM magnesium chloride, and 0.005% Tween) containing 15 nM of Terbium-Streptavidin (Invitrogen, catalog #PV3577) and 900 nM of Bodipy-GDP (Invitrogen, catalog #G22360) and incubated at room temperature for six hours. It should be noted that this preformed TR-FRET complex for each of the RAS protein were made ahead of time, aliquoted and stored at −80° C. until the day of the experiment.
Each test compound (10 mM stock in DMSO) is diluted in DMSO to make a final-10-point, 3-fold dilution and is acoustically dispensed into a 384-well assay plate (Corning, catalog #3820) using an Echo 550 (Labcyte). Each well of the assay plate receives 3 μL of a specific 3×RAS preformed TR-FRET complex and 3 μL of Assay Buffer and is incubated at room temperature for 60 minutes (preincubation time). Each well then receives 3 μL of 3×recombinant human SOS protein and GTP (Sigma, G8877) in Assay Buffer and is incubated at room temperature for 30 minutes (G13D), 60 minutes (KRAS WT/G12C/D, H/NRAS) or 90 minutes for G12V. […]
The time-resolved fluorescence resonance energy transfer (TR-FRET) signal is measured on an Envision (PerkinElmer) plate reader: Excitation filter=340 nm; emission 1=495 nm; emission2=520 nm; dichroic mirror=D400/D505; delay time=[…]. The signal of each well is determined as the ratio of the emission at 520 nm to that at 495 nm. Percent effect of each well is determined after normalization to control wells containing DMSO (no effect) or a saturating concentration of inhibitor (max effect). […]

MKN-1 cells = assay: Cellular phospho-ERK assay, MKN-1 cells (amplified wild-type KRAS); assay type: cell-based; conditions: Homo sapiens, 2 hours compound incubation, read-out: MKN1 pERK IC50
In short: (§3)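 Cells were seeded overnight, then treated 2 h at 37° C with compound in a 10-point, 1:3 titration from 30 μM top final concentration. Lysates were assayed by AlphaLISA SureFire Ultra for p-ERK and total ERK. IC50 came from a 4-parameter logistic fit of the p-ERK/total ERK ratio.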

PANC08.13 cells = assay: Cellular phospho-ERK assay, PANC08.13 cells (homozygous KRAS-G12D); assay type: cell-based; conditions: Homo sapiens, PANC-08-13, 2 hours compound incubation, read-out: PANC-08.13 pERK IC50
In short: as §3

AsPC-1 cells = assay: Cellular phospho-ERK assay, AsPC-1 cells (homozygous KRAS-G12D); assay type: cell-based; conditions: Homo sapiens, ASPC1, 2 h, 2 hours compound incubation, read-out: AsPC1 pERK IC50
In short: as §3

SW620 cells = assay: Cellular phospho-ERK assay, SW620 cells (homozygous KRAS-G12V); assay type: cell-based; conditions: Homo sapiens, SW-620, 2 hours compound incubation, read-out: SW620 pERK IC50
In short: as §3

Sequence of KRAS-G12V (P01116 with tags, fused parts or gaps isoform P01116-2 G12V): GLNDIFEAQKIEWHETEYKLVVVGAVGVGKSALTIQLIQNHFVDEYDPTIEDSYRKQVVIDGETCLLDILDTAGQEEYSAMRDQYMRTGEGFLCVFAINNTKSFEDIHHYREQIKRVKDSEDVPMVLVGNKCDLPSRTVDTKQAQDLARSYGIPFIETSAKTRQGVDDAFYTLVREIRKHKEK
Sequence of KRAS-G12D (P01116 with tags, fused parts or gaps isoform P01116-2 G12D): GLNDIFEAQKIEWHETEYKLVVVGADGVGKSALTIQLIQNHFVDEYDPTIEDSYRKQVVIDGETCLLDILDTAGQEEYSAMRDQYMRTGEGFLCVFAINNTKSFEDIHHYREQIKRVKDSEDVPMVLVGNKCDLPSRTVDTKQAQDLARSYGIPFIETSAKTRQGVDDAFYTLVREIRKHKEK
Sequence of KRAS-G12C (C51S/C80L/C118S) (P01116 with tags, fused parts or gaps isoform P01116-2 G12C/C51S/C80L/C118S): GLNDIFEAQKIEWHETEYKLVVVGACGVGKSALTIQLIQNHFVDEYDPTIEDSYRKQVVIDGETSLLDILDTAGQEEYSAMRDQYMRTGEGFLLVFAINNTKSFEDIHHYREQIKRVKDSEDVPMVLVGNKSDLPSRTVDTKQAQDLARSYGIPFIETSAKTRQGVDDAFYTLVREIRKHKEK
Sequence of HRAS (P01112 with tags, fused parts or gaps): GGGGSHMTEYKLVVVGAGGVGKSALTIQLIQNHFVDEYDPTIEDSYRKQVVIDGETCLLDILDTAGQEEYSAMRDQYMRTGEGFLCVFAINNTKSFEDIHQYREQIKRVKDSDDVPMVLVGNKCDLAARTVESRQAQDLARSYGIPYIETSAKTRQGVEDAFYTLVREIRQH
Sequence of KRAS-WT (P01116 with tags, fused parts or gaps isoform P01116-2): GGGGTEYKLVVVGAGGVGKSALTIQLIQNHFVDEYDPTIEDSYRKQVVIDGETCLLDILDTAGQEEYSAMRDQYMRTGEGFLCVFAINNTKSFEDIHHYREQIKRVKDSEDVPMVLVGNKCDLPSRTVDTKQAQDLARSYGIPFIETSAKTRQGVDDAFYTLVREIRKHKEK
Sequence of NRAS (P01111 with tags, fused parts or gaps): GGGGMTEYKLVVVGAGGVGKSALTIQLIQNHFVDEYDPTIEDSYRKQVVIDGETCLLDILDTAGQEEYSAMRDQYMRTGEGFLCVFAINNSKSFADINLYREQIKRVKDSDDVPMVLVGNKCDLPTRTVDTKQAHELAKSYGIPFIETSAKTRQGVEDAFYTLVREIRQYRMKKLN
Sequence of KRAS-G13D (P01116 with tags, fused parts or gaps isoform P01116-2 G13D): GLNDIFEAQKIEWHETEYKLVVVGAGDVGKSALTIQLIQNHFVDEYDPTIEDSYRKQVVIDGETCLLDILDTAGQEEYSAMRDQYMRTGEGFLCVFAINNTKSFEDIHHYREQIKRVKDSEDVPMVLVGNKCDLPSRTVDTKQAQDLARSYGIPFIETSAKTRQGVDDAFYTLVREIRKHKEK

IC50 (KRAS-WT) [nM]	IC50 [1] [nM]	IC50 (KRAS-G12D) [nM]	IC50 (KRAS-G12V) [nM]	IC50 (KRAS-G13D) [nM]	IC50 (HRAS) [nM]	IC50 (NRAS) [nM]	IC50 (MKN-1 cells) [nM]	IC50 (PANC08.13 cells) [nM]	IC50 (AsPC-1 cells) [nM]	IC50 (SW620 cells) [nM]	SMILES
0.766	9.25	1.47	1.08	2.54	1570	9400	3.86	1.4	4.61	1.5	C#Cc1c(F)ccc2cc(O)cc(-c3nccc4c3sc3nc(OC[C@@]56CCCN5C[C@H](F)C6)nc(N5CCOC[C@@](C)(O)C5)c34)c12 [Ex-135, (S)-4-(8-(8-ethynyl-7-fluoro-3-hydroxy-naphthalen-1-yl)-2-(((2R,7aS)-2-fluoro-tetrahydro-1H-pyr-rolizin-7a(5H)-yl)-methoxy)pyrido [4′,3′:4,5]thieno[2,3-d]pyrimidin-4-yl)-6-methyl-1,4-oxaze-pan-6-ol]
3.79	19.8	2.36	4.53	3.13	1450	7370	20.8	–	14.6	2.29	C#Cc1csc2cc3[nH]ncc3c(-c3nccc4c3sc3nc(OC[C@@]56CCCN5C[C@H](F)C6)nc(N5CCOC[C@@](C)(O)C5)c34)c12 [Ex-163, (6S)-4-(8-(5-ethyn-yl-1H-thieno[3,2-f]indazol-4-yl)-2-(((2R,7aS)-2-fluoro-tetrahydro-1H-pyr-rolizin-7a(5H)-yl)-methoxy)pyrido [4′,3′:4,5]thieno[2,3-d]pyrimidin-4-yl)-6-methyl-1,4-oxaze-pan-6-ol]
